“And” between values parts separate entries of the source, which are not always exact repeats. Equal entries are not always repeated. Toxic doses and inconclusive results are not listed. No stated cut-off is given here; in the data, active means T/C of 150% or more; inactive means T/C below 125%.
System: L1210 leukemia ip in BDF1 mice, survival T/C
Assay: NCI In Vivo Anticancer Drug Screen. Data for tumor model L1210 Leukemia (intraperitoneal) in B6D2F1 (BDF1) mice
Conditions: endpoint: mean survival time, higher = longer survival
In short: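 Tumor cells were implanted, animals were treated, and survival was followed. The result divides the treated measurement by the vehicle-control measurement.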

[1] = dose: 100.0 mg/kg/injection, schedule: Q01DX009 (ip), vehicle: saline with Tween-80
[2] = dose: 200.0 mg/kg/injection, schedule: Q01DX009 (ip), vehicle: saline with Tween-80
[3] = dose: 400.0 mg/kg/injection, schedule: Q01DX009 (ip), vehicle: saline with Tween-80
[4] = dose: 100.0 mg/kg/injection, schedule: Q01DX001 (ip), vehicle: saline
[5] = dose: 200.0 mg/kg/injection, schedule: Q01DX001 (ip), vehicle: saline
[6] = dose: 100.0 mg/kg/injection, schedule: Q01DX001 (ip), vehicle: other
[7] = dose: 200.0 mg/kg/injection, schedule: Q01DX001 (ip), vehicle: other
[8] = dose: 400.0 mg/kg/injection, schedule: Q01DX001 (ip), vehicle: other
[9] = dose: 50.0 mg/kg/injection, schedule: Q01DX009 (ip), vehicle: saline with Tween-80
[10] = dose: 100.0 mg/kg/injection, schedule: Q04DX002 (ip), vehicle: saline with Tween-80
[11] = dose: 200.0 mg/kg/injection, schedule: Q04DX002 (ip), vehicle: saline with Tween-80
[12] = dose: 400.0 mg/kg/injection, schedule: Q04DX002 (ip), vehicle: saline with Tween-80
[13] = dose: 100.0 mg/kg/injection, schedule: Q04DX003 (ip), vehicle: Klucel (hydroxypropylcellulose) (HPC)
[14] = dose: 200.0 mg/kg/injection, schedule: Q04DX003 (ip), vehicle: Klucel (hydroxypropylcellulose) (HPC)
[15] = dose: 400.0 mg/kg/injection, schedule: Q04DX003 (ip), vehicle: Klucel (hydroxypropylcellulose) (HPC)

Measured: T/C

CCC(=O)C(CCCCCCOc1ccc(OC)cc1Cl)C(=O)CC
inactive: [1] 92 % of control | [2] 89 % of control | [3] 87 % of control

NC(N)=NC(N)=NCCCc1ccccc1
inactive: dose: 12.5 mg/kg/injection, schedule: Q01DX001 (ip), vehicle: other 107 % of control | dose: 12.5 mg/kg/injection, schedule: Q04DX003 (ip), vehicle: other 97 % of control | dose: 25.0 mg/kg/injection, schedule: Q01DX001 (ip), vehicle: other 96 % of control | dose: 25.0 mg/kg/injection, schedule: Q04DX003 (ip), vehicle: other 94 % of control | dose: 50.0 mg/kg/injection, schedule: Q01DX001 (ip), vehicle: other 102 % of control | dose: 50.0 mg/kg/injection, schedule: Q04DX003 (ip), vehicle: other 97 % of control | [4] 96 % of control | [5] 96 % of control

CC(=O)OC1(C(C)(C)C)C(=O)C(=[N+]=[N-])C(O)(C(C)(C)C)C(=O)C1=[N+]=[N-] (stereo not drawn)
inactive: [6] 97 % of control | [7] 97 % of control | [8] 97 % of control

CCOC(=O)C(Nc1ccc(SC)cc1)c1ccccc1 (stereo not drawn)
inactive: [4] 110 % of control | [5] 98 % of control | dose: 400.0 mg/kg/injection, schedule: Q01DX001 (ip), vehicle: saline 98 % of control

CC1(C)COC(CC2CCCCC2)=N1
inactive: dose: 25.0 mg/kg/injection, schedule: Q01DX009 (ip), vehicle: saline with Tween-80 105 % of control | [9] 102 % of control | dose: 50.0 mg/kg/injection, schedule: Q04DX003 (ip), vehicle: saline 94 % of control | [1] 102 % of control | dose: 100.0 mg/kg/injection, schedule: Q04DX003 (ip), vehicle: saline 91 % of control | [2] 96 % of control | dose: 200.0 mg/kg/injection, schedule: Q04DX003 (ip), vehicle: saline 86 % of control

CCOC(=O)Nc1cc(N)c(N)c(NC(c2ccccc2)c2ccccc2)n1
inactive: [6] 102 % of control | [7] 104 % of control | [8] 100 % of control

c1ccc2c(c1)nnn2-c1ccncc1
inactive: [9] 92 % of control | [1] 98 % of control | [2] 90 % of control

Cc1ccc(S(=O)(=O)O/C=C2\CCOC2=O)cc1
inactive: dose: 100.0 mg/kg/injection, schedule: Q04DX002 (ip), vehicle: Klucel (hydroxypropylcellulose) (HPC) 105 % of control | dose: 200.0 mg/kg/injection, schedule: Q04DX002 (ip), vehicle: Klucel (hydroxypropylcellulose) (HPC) 112 % of control

CCCN=Cc1ccccc1O.CCCN=Cc1ccccc1O.[Ni]
inactive: dose: 75.0 mg/kg/injection, schedule: Q01DX001 (ip), vehicle: other 95 % of control | dose: 150.0 mg/kg/injection, schedule: Q01DX001 (ip), vehicle: other 108 % of control

CC(=[N-])CC(C)=O.CC(=[N-])CC(C)=O.[Ni+2]
inactive: dose: 3.0 mg/kg/injection, schedule: Q01DX009 (ip), vehicle: Klucel (hydroxypropylcellulose) (HPC) 90 % of control | dose: 3.12 mg/kg/injection, schedule: Q01DX001 (ip), vehicle: Klucel (hydroxypropylcellulose) (HPC) 97 % of control | dose: 3.12 mg/kg/injection, schedule: Q04DX003 (ip), vehicle: Klucel (hydroxypropylcellulose) (HPC) 98 % of control | dose: 3.13 mg/kg/injection, schedule: Q01DX009 (ip), vehicle: Klucel (hydroxypropylcellulose) (HPC) 97 % of control | dose: 6.0 mg/kg/injection, schedule: Q01DX009 (ip), vehicle: Klucel (hydroxypropylcellulose) (HPC) 95 % of control | dose: 6.25 mg/kg/injection, schedule: Q01DX001 (ip), vehicle: Klucel (hydroxypropylcellulose) (HPC) 100 % of control | dose: 6.25 mg/kg/injection, schedule: Q01DX009 (ip), vehicle: Klucel (hydroxypropylcellulose) (HPC) 97 % of control | dose: 6.25 mg/kg/injection, schedule: Q04DX003 (ip), vehicle: Klucel (hydroxypropylcellulose) (HPC) 97 % of control and 106 % of control | dose: 12.0 mg/kg/injection, schedule: Q01DX009 (ip), vehicle: Klucel (hydroxypropylcellulose) (HPC) 96 % of control | dose: 12.5 mg/kg/injection, schedule: Q01DX001 (ip), vehicle: Klucel (hydroxypropylcellulose) (HPC) 105 % of control | dose: 12.5 mg/kg/injection, schedule: Q01DX009 (ip), vehicle: Klucel (hydroxypropylcellulose) (HPC) 98 % of control | dose: 12.5 mg/kg/injection, schedule: Q04DX003 (ip), vehicle: Klucel (hydroxypropylcellulose) (HPC) 102 % of control and 103 % of control | dose: 25.0 mg/kg/injection, schedule: Q01DX001 (ip), vehicle: Klucel (hydroxypropylcellulose) (HPC) 100 % of control

Nc1nc([Se]c2ccc([N+](=O)[O-])cc2)c2ncn(C3CC(O)C(CO)O3)c2n1 (stereo not drawn)
inactive: dose: 100.0 mg/kg/injection, schedule: Q01DX005 (ip), vehicle: saline 100 % of control | dose: 200.0 mg/kg/injection, schedule: Q01DX005 (ip), vehicle: saline 100 % of control

COC1(c2cccs2)OC1(C)C (stereo not drawn)
inactive: [1] 110 % of control | [2] 94 % of control | [3] 100 % of control

C=C1C(=O)OC2CC/C=C\CCC12 (stereo not drawn)
inactive: dose: 50.0 mg/kg/injection, schedule: Q01DX009 (ip), vehicle: saline 95 % of control | dose: 100.0 mg/kg/injection, schedule: Q01DX009 (ip), vehicle: saline 103 % of control | dose: 200.0 mg/kg/injection, schedule: Q01DX009 (ip), vehicle: saline 95 % of control

CC(C)(C)OOC(=O)CCCl
inactive: [10] 93 % of control | [11] 101 % of control | [12] 101 % of control

c1ccc2occc2c1
inactive: [4] 103 % of control

CCOCCOCCOC(C)Oc1ccc(Cl)cc1Cl (stereo not drawn)
inactive: [10] 97 % of control | [11] 94 % of control | [12] 100 % of control

CCOC(=O)c1csc(CNC(=O)c2ccccc2)n1
inactive: dose: 100.0 mg/kg/injection, schedule: Q01DX001 (ip), vehicle: saline with Tween-80 107 % of control | [1] 100 % of control | dose: 100.0 mg/kg/injection, schedule: Q04DX003 (ip), vehicle: saline with Tween-80 97 % of control | dose: 200.0 mg/kg/injection, schedule: Q01DX001 (ip), vehicle: saline with Tween-80 98 % of control | [2] 97 % of control | dose: 200.0 mg/kg/injection, schedule: Q04DX003 (ip), vehicle: saline with Tween-80 95 % of control | dose: 400.0 mg/kg/injection, schedule: Q01DX001 (ip), vehicle: saline with Tween-80 104 % of control | [3] 103 % of control | dose: 400.0 mg/kg/injection, schedule: Q04DX003 (ip), vehicle: saline with Tween-80 93 % of control

S=P1(c2ccccc2)Nc2cc(Cl)ccc2S1 (stereo not drawn)
inactive: dose: 50.0 mg/kg/injection, schedule: Q01DX001 (ip), vehicle: saline 105 % of control | [4] 106 % of control

O=c1[nH]c(=O)c2nc[nH]c(=O)c2[nH]1
inactive: dose: 75.0 mg/kg/injection, schedule: Q01DX009 (ip), vehicle: Klucel (hydroxypropylcellulose) (HPC) 98 % of control | [13] 118 % of control | dose: 150.0 mg/kg/injection, schedule: Q01DX009 (ip), vehicle: Klucel (hydroxypropylcellulose) (HPC) 97 % of control | [14] 94 % of control | [15] 100 % of control

COC(=O)c1cc([N+](=O)[O-])cc2ccccc12
inactive: dose: 100.0 mg/kg/injection, schedule: Q01DX009 (ip), vehicle: Klucel (hydroxypropylcellulose) (HPC) 99 % of control | [13] 105 % of control | dose: 200.0 mg/kg/injection, schedule: Q01DX009 (ip), vehicle: Klucel (hydroxypropylcellulose) (HPC) 96 % of control | [14] 94 % of control | [15] 97 % of control
